Where two headings read alike, the source gives them in different places.
What was measured:
[1] = Human microsomal clearance assay; type: in vitro ADME
Outline: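 Liver microsomes (0.5 mg/mL protein) were incubated with 1 μM compound at 37 °C, pH 7.4 phosphate, with an NADPH-regenerating system. Samples at 0-30 min were quenched and measured by LC-MS/MS for parent loss. No-NADPH controls were included.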

[2] = system: HBV replication in HepG2.2.15 cells; assay: Anti-HBV activity in vitro in HepG2.2.15 cells (extracellular HBV DNA by qPCR); type: cell-based; conditions: read-out: EC50
Outline: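 Constitutively HBV-producing HepG2.2.15 cells were seeded overnight at 37 °C, then treated with half-log serial dilutions of compound (0.5% DMSO final) for five days. Supernatant HBV DNA was extracted and quantified by qPCR; EC50 is the concentration inhibiting HBV replication by 50%.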

HepDE19 cells = assay: Cytotoxicity (CCK-8 cell viability) and selectivity index; type: cell-based, human; conditions: for CC50: cytotoxicity, concentration resulting in death of 50% of host cells; for Selectivity index (CC50/EC50): CC50 value/EC50 value
From the text: (§1) HepG2.2.15 and HepDE19 are stably-transfected cell lines containing the HBV genome. Both cell lines are derived from the hepatoblastoma cell line Hep G2 (American Type Culture Collection, ATCC® HB-8065™) by the published procedures described in references: M A Selles et al. Proc. Natl. Acad. Sci. USA 1987, 84, 1005-1009 and H Guo et al. Journal of Virology 2007, 81, 12472-12484, respectively. Both cell lines were maintained in Dulbecco's modified Eagle's medium (DMEM)-F12 medium supplemented with 10% fetal bovine serum, 100 U/mL penicillin, 100 μg/mL streptomycin, and 0.5 mg/mL of G418.
(§2) In a cell culture model, apparent antiviral activity of a compound can be the result of host cell death after exposure to the compound. To determine whether the anti-HBV effect of a test compound is due to cytotoxicity, HepDE19 cells were seeded into 96-well plates (5×10^3 cells per well) and treated with compounds as described above for EC50 determination. Five days after treatment, cell viability was measured by addition of 20 μL of CCK-8 reagent. Two hours after incubation at 37° C., the absorbance at wavelengths of 450 nm and 630 nm (OD450 and OD630) was recorded by a plate reader. The concentration results in the death of 50% of the host cells (CC50) of each compound was determined (See Table 5).

[3] = Lyophilisation solubility assay (Lysa); type: physicochemical; conditions: for solubility thermodynamic: pH 6.5, aqueous buffer, thermodynamic from solid
Experimental: The aqueous solubility is an important physico-chemical property that plays a significant role in various physical and biological processes. It is desirable to have good solubility which enables good permeability and gastric and intestinal absorption, linear dose proportionality, less PK variability, and easy formulation for PD/PK studies. […] Lyophilisation solubility assay (Lysa) is a well adopted high throughput assay to measure compound solubility in industry.
Samples are prepared in duplicate from 10 mM DMSO stock solutions. After evaporation of DMSO with a centrifugal vacuum evaporator, the residue is solved in 0.05 M phosphate buffer (pH 6.5), stirred for one hour and then shook for two hours. After one night, the solution is filtered using a microtiter filter plate and then the filtrate and its 1/10 dilution are then analyzed by direct UV measurement or by HPLC-UV. In addition a four-point calibration curve is prepared from the 10 mM stock solutions and used for the solubility determination of the compounds. The results are in μg/ml. In case the percentage of sample measured in solution after evaporation divided by the calculated maximum of sample amount is bigger than 80% the solubility is reported as bigger than this value.

[4] = Cytotoxicity (CCK-8 cell viability) and selectivity index; type: cell-based, human; conditions: human, HepDE19 cells; cytotoxicity, concentration resulting in death of 50% of host cells
From the text: as §1, §2

[5] = Anti-HBV activity in HepG2.2.15 cells
[6] = Hepatitis B virus, HepG2.2.15, Anti-HBV activity in HepG2.2.15 cells

Row | Compound | EC50 [2, 6] [nM] | CC50 at 5 days [4] [nM] | Selectivity index (CC50/EC50) (HepDE19 cells) | further results
1 | COC(=O)C1=C(CN2[C@@H]3C[C@@H](CC(=O)O)C[C@H]2C(F)(F)C3)NC(c2nccs2)=N[C@H]1c1ccc(Cl)c(F)c1 (single isomer, unassigned) [Example 113, 2-[(1R,3R,5S)-8-[[(4S)-4-(4-chloro-3-fluoro-phenyl)-5-methoxycarbonyl-2-thiazol-2-yl-1,4-dihydropyrimidin-6-yl]methyl]-6,6-difluoro-8-azabicyclo[3.2.1]octan-3-yl]acetic acid or 2-[(1S,3S,5R)-8-[[(4S)-4-(4-chloro-3-fluoro-phenyl)-5-methoxycarbonyl-2-thiazol-2-yl-1,4-dihydropyrimidin-6-yl]methyl]-6,6-difluoro-8-azabicyclo[3.2.1]octan-3-yl]acetic acid] |  |  |  | CLh ([1]; human microsomal clearance): 6.2 mL/min/kg; EC50 [2, 5]: 9.1 nM; CC50 (HepDE19 cells): 58000 nM
2 | COC(=O)C1=C(CN2[C@H]3COC[C@@H]2C(F)(F)[C@H](CC(=O)O)C3)NC(c2nccs2)=N[C@H]1c1ccc(F)c(F)c1Cl (single isomer, unassigned) [Example 131, 2-[(1R,5R,7S)-9-[[(4R)-4-(2-chloro-3,4-difluoro-phenyl)-5-methoxycarbonyl-2-thiazol-2-yl-1,4-dihydropyrimidin-6-yl]methyl]-6,6-difluoro-3-oxa-9-azabicyclo[3.3.1]nonan-7-yl]acetic acid or 2-[(1S,5S,7R)-9-[[(4R)-4-(2-chloro-3,4-difluoro-phenyl)-5-methoxycarbonyl-2-thiazol-2-yl-1,4-dihydropyrimidin-6-yl]methyl]-6,6-difluoro-3-oxa-9-azabicyclo[3.3.1]nonan-7-yl]acetic acid] |  |  |  | CLh ([1]; human microsomal clearance): 0 mL/min/kg; EC50 [2, 5]: 5.7 nM; Lysa ([3]; 0.05 M phosphate buffer (pH 6.5), reported as bigger than the value if more than 80% of the sample is in solution): 261 µg/mL; CC50 (HepDE19 cells): 53000 nM
3 | COC(=O)C1=C(CN2C3COCC2CC(O)C3)NC(c2nccs2)=N[C@H]1c1ccc(F)cc1Cl (stereo partly drawn) [Example 7, (R)-4-(2-Chloro-4-fluoro-phenyl)-6-(7-hydroxy-3-oxa-9-aza-bicyclo[3.3.1]non-9-ylmethyl)-2-thiazol-2-yl-1,4-dihydro-pyrimidine-5-carboxylic acid methyl ester] | 12 | > 100000 | >8333 | 
4 | COC(=O)C1=C(CN2C3COCC2CN(CC(F)F)C3)NC(c2nccs2)=N[C@H]1c1ccc(F)cc1Cl [Example 14, (R)-4-(2-Chloro-4-fluoro-phenyl)-6-[7-(2,2-difluoro-ethyl)-3-oxa-7,9-diaza-bicyclo[3.3.1]non-9-ylmethyl]-2-thiazol-2-yl-1,4-dihydro-pyrimidine-5-carboxylic acid methyl ester] | 13 | > 100000 | >7692 | 
5 | COC(=O)C1=C(CN2C3COCC2CN(C(=O)OC)C3)NC(c2nccs2)=N[C@H]1c1ccc(F)cc1Cl [Example 17, 9-[(R)-6-(2-Chloro-4-fluoro-phenyl)-5-methoxycarbonyl-2-thiazol-2-yl-3,6-dihydro-pyrimidin-4-ylmethyl]-3-oxa-7,9-diaza-bicyclo[3.3.1]nonane-7-carboxylic acid methyl ester] | 4 | 50000 | 11628 | 
6 | COC(=O)CC1CC2COCC(C1)N2CC1=C(C(=O)OC)[C@H](c2ccc(F)cc2Cl)N=C(c2nccs2)N1 (stereo partly drawn) [Example 25, (R)-4-(2-Chloro-4-fluoro-phenyl)-6-(7-methoxycarbonylmethyl-3-oxa-9-aza-bicyclo[3.3.1]non-9-ylmethyl)-2-thiazol-2-yl-1,4-dihydro-pyrimidine-5-carboxylic acid methyl ester] | 14.5 | > 100000 | >6897 | 
7 | COC(=O)C1=C(CN2[C@@H]3COC[C@H]2CC2(C3)N=N2)NC(c2nccs2)=N[C@H]1c1ccc(F)cc1Cl [Example 43, (R)-6-(7-Diazirine-3-oxa-9-aza-bicyclo[3.3.1]non-9-ylmethyl)-4-(2-chloro-4-fluoro-phenyl)-2-thiazol-2-yl-1,4-dihydro-pyrimidine-5-carboxylic acid methyl ester] | 3 | 43000 | 14845 | 
8 | COC(=O)C1=C(CN2C3COCC2c2[nH]ncc23)NC(c2nccs2)=N[C@H]1c1ccc(F)cc1Cl (stereo partly drawn) [Example 45, (R)-4-(2-Chloro-4-fluoro-phenyl)-6-(9-oxa-3,4,11-triaza-tricyclo[5.3.1.0*2,6*]undeca-2(6),4-dien-11-ylmethyl)-2-thiazol-2-yl-1,4-dihydro-pyrimidine-5-carboxylic acid methyl ester] | 0.5 | 43000 | 85280 | 
9 | CCOC(=O)C1=C(CN2[C@@H]3COC[C@H]2C[C@@H](NC(C)=O)C3)NC(c2nccs2)=N[C@H]1c1ccc(F)cc1Br [Example 70, Ethyl (4R)-6-[[(1S,5R)-7-endo-acetamido-3-oxa-9-azabicyclo[3.3.1]nonan-9-yl]methyl]-4-(2-bromo-4-fluoro-phenyl)-2-thiazol-2-yl-1,4-dihydropyrimidine-5-carboxylate] | 8.2 | 60000 | 7268 | 
10 | CCOC(=O)C1=C(CN2[C@@H]3COC[C@H]2C[C@H](NC(C)=O)C3)NC(c2nccs2)=N[C@H]1c1ccc(F)cc1Br [Example 71, Ethyl (4R)-6-[[(1S,5R)-7-exo-acetamido-3-oxa-9-azabicyclo[3.3.1]nonan-9-yl]methyl]-4-(2-bromo-4-fluoro-phenyl)-2-thiazol-2-yl-1,4-dihydropyrimidine-5-carboxylate] | 3 | 44000 | 14690 | 
11 | COC(=O)C1=C(CN2C3COCC2c2conc2C3)NC(c2nccs2)=N[C@H]1c1ccc(F)cc1Cl (stereo partly drawn) [Example 104, (4R)-4-(2-Chloro-4-fluoro-phenyl)-6-(4,10-dioxa-5,12-diaza-tricyclo[6.3.1.0*2,6*]dodeca-2,5-dien-12-ylmethyl)-2-thiazol-2-yl-1,4-dihydro-pyrimidine-5-carboxylic acid methyl ester] | 4.8 | 44000 | 9079 | 
12 | COC(=O)C1=C(CN2C3COCC2c2cnoc2C3)NC(c2nccs2)=N[C@H]1c1ccc(F)cc1Cl (stereo partly drawn) [Example 105, (4R)-4-(2-Chloro-4-fluoro-phenyl)-6-(5,10-dioxa-4,12-diaza-tricyclo[6.3.1.0*2,6*]dodeca-2(6),3-dien-12-ylmethyl)-2-thiazol-2-yl-1,4-dihydro-pyrimidine-5-carboxylic acid methyl ester] | 2.7 | 33000 | 12041 | 
13 | COC(=O)C1=C(CN2[C@H]3CC[C@]2(C(=O)O)CC3(F)F)NC(c2nccs2)=N[C@H]1c1ccc(F)cc1Cl [Example 148, (1S,4R)-7-[[(4R)-4-(2-chloro-4-fluoro-phenyl)-5-methoxycarbonyl-2-thiazol-2-yl-1,4-dihydropyrimidin-6-yl]methyl]-2,2-difluoro-7-azabicyclo[2.2.1]heptane-4-carboxylic acid] | 59.2 |  |  | CLh ([1]; human, 1 μM, pH 7.4): 2.3 mL/min/kg; solubility thermodynamic [3]: > 655 µg/mL
14 | COC(=O)C1=C(CN2[C@@H]3CC[C@@]2(C(=O)O)CC3(F)F)NC(c2nccs2)=N[C@H]1c1ccc(F)cc1Cl [Example 149, (1R,4S)-7-[[(4R)-4-(2-chloro-4-fluoro-phenyl)-5-methoxycarbonyl-2-thiazol-2-yl-1,4-dihydropyrimidin-6-yl]methyl]-2,2-difluoro-7-azabicyclo[2.2.1]heptane-4-carboxylic acid] | 4 |  |  | CLh ([1]; human, 1 μM, pH 7.4): 3.4 mL/min/kg; solubility thermodynamic [3]: > 665 µg/mL

— US9266904B2, “6-bridged heteroaryldihydropyrimidines for the treatment and prophylaxis of hepatitis B virus infection” (priority 2013, dated 2016)
